# From ChEMBL document CHEMBL1201862, “PubChem BioAssay data set” (2004)
# Values joined by “and” are separate entries in the source; they are usually repeats but may differ in a detail not shown here. Identical values can stand only once. Active and inactive are the calls of the source.
# Key:
# [1] = viability of PTEN-deleted HCT116 cells – cell-based, HCT116 PTEN knockout, dose response (AID 1047); format: functional;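 also: HCT116 colon tumor cells with PTEN knocked out; cells exposed to compound for 60 hours before readout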
# [2] = viability of HCT116 lacking mutant beta-catenin – cell-based, human colon tumor, dose response (AID 1045); format: functional;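 also: HCT116 colon tumor cells with beta catenin knocked out; cells exposed to compound for 60 hours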
# CHO = CHO cell viability loss, potency – luminescence, cytotoxicity control for TLR9-MyD88 binding inhibitor project, dose response (AID 588339); format: functional, cell-based, hamster; conditions: Cricetulus griseus;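 also: CHO cells stably coexpressing TLR9 and MyD88 fusions from primary screen; compound exposure lasted 48 hours before viability readout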
# Beta Lactamase [3] = target: T1, Beta Lactamase (Pseudomonas aeruginosa, UniProt Q932Y6); assay: BLA reporter interference, concentration series – BLA reporter cells, FRET fluorescence, artefact control for TLR9-MyD88 binding inhibitor project, dose response (AID 588341); format: cell-based;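 also: cell based assay in CHO-K1 cells stably expressing beta-lactamase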
# Vero [4] = assay: cells; format: functional, cell-based; conditions: Chlorocebus sabaeus
# Vero [5] = assay: cells; format: functional; conditions: Chlorocebus sabaeus
# [6] = target: Dual specificity protein kinase CLK1 (Homo sapiens, UniProt P49759); assay: inhibition of human CLK1 activity – biochemical, cherry-picked samples, selectivity assay for Dyrk1A inhibitor project, dose response (AID 588811)
# [7] = NIH-3T3 fibroblast cytotoxicity, dose response, cytotoxicity control, cell-based, fluorescence, Alamar Blue, secondary assay (AID 2327); format: functional;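 also: NIH-3T3 mouse fibroblasts cultured with fluconazole at 8 µg/mL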
# [8] = fluconazole-exposed Candida albicans growth modulators – fluorescence, retest, confirmation (AID 2467); format: functional, cell-based
# [9] = target: Serine/threonine-protein phosphatase (Candida dubliniensis (strain CD36 / CBS 7987 / NCPF 3949 / NRRLY-17841) (Yeast), UniProt B9W6M3); assay: blockers of CaCl2-induced CDRE-lacZ signaling – S. cerevisiae, luminescence, secondary, dose response (AID 2388); format: functional, cell-based;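 also: yeast reporter cells carrying a calcineurin-responsive lacZ construct stimulated with calcium chloride; luminescent beta-galactosidase reporter signal in whole cells rather than isolated phosphatase activity; potency for inhibition where a drop in reporter signal means calcineurin blockade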
# [10] = target: ATP-dependent molecular chaperone HSP82 (Candida albicans (strain WO-1) (Yeast), UniProt C4YTQ8); assay: steroid-induced GRE reporter decrease in yeast – S. cerevisiae, luminescence, Hsp90 inhibitor project, dose response (AID 2400); format: functional, cell-based;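 also: beta-galactosidase luminescence from glucocorticoid response element reporter as proxy for Hsp90 function; inhibitor potency where signal loss means Hsp90 inhibition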
# Escherichia coli [11] = assay: microbe, parasite or virus in culture
# Escherichia coli [12] = assay: microbe, parasite or virus in culture; remark: listed apart in the source
# [13] = luciferase reporter signal suppression in cells – H4 neuroglioma cells, luminescence, dose response (AID 1990); format: functional, cell-based
# [14] = luciferase reporter signal reduction – luminescence, H4-C neuroglioblastoma cells, dose response (AID 2458); format: functional, cell-based;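 also: H4 neuroglioblastoma cells stably carrying a luciferase reporter gene fusion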
# [15] = target: Luciferin 4-monooxygenase (Photinus pyralis, UniProt P08659); assay: Counter Screen for Luciferase-based Assay Positives. [Related pubchem assays: 620, 618, 411 ]
# [16] = target: Glyceraldehyde-3-phosphate dehydrogenase (Homo sapiens, UniProt P04406)
# cells [17] = format: functional, cell-based
# [18] = Luminescence Cell-Based Dose Response HTS to Identify Inhibitors of 5'UTR Stem-Loop Driven Prion Protein mRNA Translation in H4 Neuroglioblastoma Cells. [Related pubchem assays: 1827 (Project Summary), 1813 (Primary HTS)]; format: functional
# [19] = alpha-synuclein stem-loop luciferase translation blockers – H4 neuroglioma cells, luminescence, confirmation (AID 1988); format: functional, cell-based
# HT-1080 = assay: HT1080 cell viability loss – fluorescence readout (AID 620); format: functional, cell-based; conditions: Homo sapiens
# [20] = alpha-synuclein stem-loop translation blockers – luminescence, H4 neuroglioblastoma cells, dose confirmation, confirmation (AID 2454); format: functional, cell-based;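 also: H4 neuroglioblastoma cells carrying an alpha-synuclein 5'UTR luciferase reporter; potency for inhibition of the luciferase signal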
# [21] = target: Voltage-dependent T-type calcium channel subunit alpha-1H (Homo sapiens, UniProt O95180); format: functional;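 also: channel activity triggered by adding a high calcium stimulation buffer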
# Jurkat [22] = assay: blockers of NF-kB activation in T cells – Jurkat, luciferase reporter, luminescence, B- and T-cell, dose response (AID 489004); format: functional, cell-based; conditions: Homo sapiens;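 also: NF-kB luciferase reporter Jurkat cells stimulated with PMA plus ionomycin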
# [23] = HEK-293T viability loss, compound-treated – cell-based, uHTS hits, cytotoxicity control for B/T-cell NF-kB inhibitor project, dose response (AID 489019); format: functional;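 also: IC50 reflects cytotoxicity as loss of cell viability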
# [24] = blockers of HIV-1 envelope-mediated cell-cell fusion – cherry-pick, dose response (AID 652057); format: functional, cell-based
# [25] = blockers of HIV-1 ZM109 envelope-driven cell-cell fusion – HeLa effector, CEM target cells, luciferase, cherry-pick, dose response (AID 652058); format: functional, cell-based;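 also: luciferase signal from HIV-1 Env mediated cell-cell fusion of effector and target cells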
# [26] = off-target signal loss in HeLa-CEM21 co-culture – HeLa F-luc CTL cells, cherry-picked, counter-screen for HIV-1 Env fusion inhibitor project, dose response (AID 652040); format: functional, cell-based;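 also: potency for signal decrease marking cytotoxic or nonspecific inhibition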
# [27] = HIV-1 AD8 envelope cell-cell fusion blockers – cherry-pick, dose response (AID 652062); format: functional, cell-based;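 also: luciferase signal from cell-cell fusion driven by HIV-1 clade B AD8 Env; potency is for inhibitors of fusion seen as a drop in luminescence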
# HEK293 [28] = assay: HEK293T cell viability loss, resazurin readout – resazurin fluorescence, cytotoxicity control for NF-kB activator project, SAR follow-up (AID 493251); format: functional, cell-based; conditions: Homo sapiens
# Jurkat [29] = assay: SAR Analysis of small molecule inhibitors of T-cell specific antigen receptor-induced NF-kB activation in a Jurkat cell line using a luminescence assay - Set 2. [Related pubchem assays (depositor defined):AID435003, AID435012, AID465]; format: functional, cell-based; conditions: Homo sapiens
# HEK293 [30] = assay: SAR Analysis of small molecule inhibitors of T-cell specific antigen receptor-induced NF-kB activation in a HEK-293T cell line using a luminescence assay - Set 2. [Related pubchem assays (depositor defined):AID435003, AID435012, AID489026]; format: functional, cell-based; conditions: Homo sapiens
# DNA topoisomerase = DNA topoisomerase (Yersinia pestis, UniProt A0A2S9PM60); assay: Yersinia topoisomerase I cleavage product accumulation – biochemical, cherry-pick, dose response (AID 588525)
# [31] = reduction of Shn3 3'UTR-driven luciferase in osteoblasts – cell-based, Clone20 osteoblasts, firefly luciferase, cherry-picked, dose response (AID 624132); format: functional;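 also: firefly luciferase luminescence from reporter carrying the Shn3 3'UTR in osteoblasts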
# [32] = loss of viability in HepG2 cells – cell-based, CellTiter-Glo, cherry-picked, cytotoxicity control for Shn3 inhibitor project, dose response (AID 624134); format: functional
# [33] = non-specific 3'UTR reporter inhibition in Clone20-Shn3RL – cell-based, Renilla luciferase, cherry-picked, counter-screen for Shn3 inhibitor project, dose response (AID 624133); format: functional
# [34] = Fluorescence-based cell-based high throughput dose response assay for inhibitors of the interaction of nucleotide-binding oligomerization domain containing 2 (NOD2) and the receptor-interacting serine-threonine kinase 2 (RIPK2).; format: functional; conditions: Homo sapiens
# Beta Lactamase [35] = target: T1, Beta Lactamase; assay: BLA reporter interference, concentration series – BLA reporter cells, FRET fluorescence, artefact control for NOD2-RIPK2 interaction inhibitor project, dose response (AID 651552); format: functional, cell-based
# [36] = tested on: Streptococcus sp. 'group A'; assay: Streptococcus pyogenes SK(-)GAS viability under kanamycin – luminescence, BacTiterGlo, confirmation, counter-screen for streptokinase expression inhibitor project, dose response (AID 1900); format: functional, organism-based
# Streptokinase A = target: T2, Streptokinase A (Streptococcus pyogenes serotype M1, UniProt P10520); assay: viability-normalized secreted streptokinase activity reduction – plasminogen activation absorbance, OD405, dose response (AID 1914); format: functional, Streptococcus pyogenes M1 GAS;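 also: secreted streptokinase activity via plasminogen activation per viability signal from cell pellet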
# T2 sequence (P10520 whole entry): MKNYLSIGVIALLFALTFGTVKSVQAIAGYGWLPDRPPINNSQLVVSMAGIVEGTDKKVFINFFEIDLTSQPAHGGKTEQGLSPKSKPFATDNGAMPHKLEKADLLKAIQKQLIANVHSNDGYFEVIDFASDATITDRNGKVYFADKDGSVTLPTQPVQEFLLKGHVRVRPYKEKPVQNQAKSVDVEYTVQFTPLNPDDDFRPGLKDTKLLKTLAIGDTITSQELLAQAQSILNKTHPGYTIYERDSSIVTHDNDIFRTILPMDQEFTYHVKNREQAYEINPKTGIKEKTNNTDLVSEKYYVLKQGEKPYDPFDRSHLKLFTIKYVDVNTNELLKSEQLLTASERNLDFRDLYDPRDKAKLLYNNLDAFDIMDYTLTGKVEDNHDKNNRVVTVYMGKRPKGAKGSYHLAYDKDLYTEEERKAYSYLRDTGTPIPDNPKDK
# Streptococcus = assay: GAS UMAA2166 growth inhibition – luminescence, BacTiterGlo, counter-screen for streptokinase expression inhibitor project, dose response (AID 1915); format: functional, organism-based;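 also: potency for reduction of bacterial viability or growth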
# Galanin receptor type 3 = target: T3, Galanin receptor type 3 (Homo sapiens, UniProt O60755); assay: Fluorescence-based cell-based primary high throughput dose response assay to identify antagonists of the Galanin Receptor 3 (GalR3).; format: functional
# T3 sequence (O60755 whole entry): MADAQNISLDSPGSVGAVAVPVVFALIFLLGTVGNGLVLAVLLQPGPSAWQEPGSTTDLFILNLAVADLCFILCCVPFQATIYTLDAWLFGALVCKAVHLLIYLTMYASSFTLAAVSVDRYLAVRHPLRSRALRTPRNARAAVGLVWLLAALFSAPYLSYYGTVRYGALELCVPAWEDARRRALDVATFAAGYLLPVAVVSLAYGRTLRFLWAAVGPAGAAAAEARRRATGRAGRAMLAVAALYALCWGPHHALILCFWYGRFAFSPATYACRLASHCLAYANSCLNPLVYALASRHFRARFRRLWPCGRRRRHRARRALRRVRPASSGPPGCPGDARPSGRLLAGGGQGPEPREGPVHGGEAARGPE
# cells [37] = format: functional, cell-based; conditions: HEK-CNG
# [38] = target: T4, COUP transcription factor 2 (Homo sapiens, UniProt P24468); assay: Luminescence-based cell-based high throughput dose response assay to identify inhibitors of COUP-TFII (NR2F2).; format: functional;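 also: HEK293 cells transiently cotransfected with COUP-TFII expression vector and reporter; luciferase reporter luminescence driven by COUP-TFII from the pX2-168 reporter plasmid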
# T4 sequence (P24468 whole entry): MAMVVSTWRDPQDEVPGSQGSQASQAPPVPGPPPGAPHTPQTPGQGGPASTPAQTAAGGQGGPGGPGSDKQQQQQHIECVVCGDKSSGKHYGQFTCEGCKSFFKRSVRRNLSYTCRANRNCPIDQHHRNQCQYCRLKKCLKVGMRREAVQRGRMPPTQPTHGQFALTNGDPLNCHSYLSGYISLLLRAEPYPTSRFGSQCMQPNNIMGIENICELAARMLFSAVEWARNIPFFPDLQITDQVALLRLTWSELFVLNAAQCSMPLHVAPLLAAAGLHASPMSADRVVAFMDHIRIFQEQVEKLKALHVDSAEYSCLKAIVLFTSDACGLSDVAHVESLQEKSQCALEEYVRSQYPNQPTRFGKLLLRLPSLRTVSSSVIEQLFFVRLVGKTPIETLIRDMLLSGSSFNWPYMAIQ
# Chain of ATP-dependent molecular chaperone HSP82 (C4YTQ8 whole entry): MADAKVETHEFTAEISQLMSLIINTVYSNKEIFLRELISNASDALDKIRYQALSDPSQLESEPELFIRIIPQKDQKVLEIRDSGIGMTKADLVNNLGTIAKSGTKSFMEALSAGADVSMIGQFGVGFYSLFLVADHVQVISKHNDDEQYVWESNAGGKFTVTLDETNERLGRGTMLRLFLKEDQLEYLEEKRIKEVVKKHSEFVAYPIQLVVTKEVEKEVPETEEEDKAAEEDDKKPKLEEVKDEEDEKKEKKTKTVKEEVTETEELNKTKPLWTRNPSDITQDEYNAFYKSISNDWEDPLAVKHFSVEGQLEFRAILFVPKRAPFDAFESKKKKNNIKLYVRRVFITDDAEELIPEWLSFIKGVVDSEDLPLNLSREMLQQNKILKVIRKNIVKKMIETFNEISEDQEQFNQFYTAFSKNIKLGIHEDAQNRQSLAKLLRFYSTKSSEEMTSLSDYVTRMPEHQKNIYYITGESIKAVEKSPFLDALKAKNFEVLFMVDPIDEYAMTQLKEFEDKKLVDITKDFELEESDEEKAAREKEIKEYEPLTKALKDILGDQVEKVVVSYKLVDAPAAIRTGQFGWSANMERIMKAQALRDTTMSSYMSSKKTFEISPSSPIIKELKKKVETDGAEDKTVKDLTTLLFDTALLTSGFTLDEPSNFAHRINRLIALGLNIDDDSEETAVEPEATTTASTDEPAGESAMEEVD
# Chain of DNA topoisomerase (A0A2S9PM60 whole entry): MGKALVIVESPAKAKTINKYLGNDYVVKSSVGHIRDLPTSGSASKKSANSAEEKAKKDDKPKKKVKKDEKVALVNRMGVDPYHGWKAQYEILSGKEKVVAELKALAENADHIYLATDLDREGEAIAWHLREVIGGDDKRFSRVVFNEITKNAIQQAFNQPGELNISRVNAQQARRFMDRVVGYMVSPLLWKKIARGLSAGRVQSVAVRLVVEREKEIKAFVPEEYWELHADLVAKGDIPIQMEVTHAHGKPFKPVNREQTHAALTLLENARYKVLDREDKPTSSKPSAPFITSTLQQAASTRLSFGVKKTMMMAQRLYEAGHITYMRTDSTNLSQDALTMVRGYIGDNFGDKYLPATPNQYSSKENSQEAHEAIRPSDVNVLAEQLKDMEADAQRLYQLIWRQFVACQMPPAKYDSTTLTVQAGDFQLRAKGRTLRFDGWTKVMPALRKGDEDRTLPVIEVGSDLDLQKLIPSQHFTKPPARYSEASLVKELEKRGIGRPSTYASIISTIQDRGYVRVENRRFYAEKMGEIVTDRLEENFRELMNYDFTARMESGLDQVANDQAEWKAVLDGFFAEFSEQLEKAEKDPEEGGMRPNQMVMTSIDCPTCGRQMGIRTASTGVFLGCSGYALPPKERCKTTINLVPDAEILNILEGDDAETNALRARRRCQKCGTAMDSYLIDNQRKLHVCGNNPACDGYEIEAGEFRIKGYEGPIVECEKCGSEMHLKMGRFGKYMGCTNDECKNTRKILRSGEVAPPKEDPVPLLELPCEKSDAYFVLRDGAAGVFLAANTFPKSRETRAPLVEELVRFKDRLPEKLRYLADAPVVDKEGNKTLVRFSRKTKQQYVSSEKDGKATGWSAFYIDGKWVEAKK
# T1 sequence (Q932Y6 whole entry): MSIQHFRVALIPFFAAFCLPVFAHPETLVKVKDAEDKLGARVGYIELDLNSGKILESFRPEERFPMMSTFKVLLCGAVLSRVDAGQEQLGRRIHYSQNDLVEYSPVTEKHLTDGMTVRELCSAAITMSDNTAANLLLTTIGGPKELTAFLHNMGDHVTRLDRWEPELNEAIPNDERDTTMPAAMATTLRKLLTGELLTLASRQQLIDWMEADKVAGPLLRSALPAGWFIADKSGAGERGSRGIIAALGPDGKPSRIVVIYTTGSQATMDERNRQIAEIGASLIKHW
# Chain of Dual specificity protein kinase CLK1 (P49759 whole entry): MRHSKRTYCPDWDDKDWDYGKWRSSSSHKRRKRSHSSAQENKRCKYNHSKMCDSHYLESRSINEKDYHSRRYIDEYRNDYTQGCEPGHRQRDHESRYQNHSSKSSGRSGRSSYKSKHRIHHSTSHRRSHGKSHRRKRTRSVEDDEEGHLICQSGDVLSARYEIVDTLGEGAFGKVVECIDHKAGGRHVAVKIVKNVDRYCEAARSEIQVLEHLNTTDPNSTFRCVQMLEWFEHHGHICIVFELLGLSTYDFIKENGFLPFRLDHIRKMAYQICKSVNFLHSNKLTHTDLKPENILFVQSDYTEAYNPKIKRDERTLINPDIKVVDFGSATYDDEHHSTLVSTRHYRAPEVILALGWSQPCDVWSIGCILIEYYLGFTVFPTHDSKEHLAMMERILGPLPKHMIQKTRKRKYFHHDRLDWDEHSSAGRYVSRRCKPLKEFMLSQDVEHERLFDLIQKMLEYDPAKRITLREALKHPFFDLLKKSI
# Chain of Serine/threonine-protein phosphatase (B9W6M3 whole entry): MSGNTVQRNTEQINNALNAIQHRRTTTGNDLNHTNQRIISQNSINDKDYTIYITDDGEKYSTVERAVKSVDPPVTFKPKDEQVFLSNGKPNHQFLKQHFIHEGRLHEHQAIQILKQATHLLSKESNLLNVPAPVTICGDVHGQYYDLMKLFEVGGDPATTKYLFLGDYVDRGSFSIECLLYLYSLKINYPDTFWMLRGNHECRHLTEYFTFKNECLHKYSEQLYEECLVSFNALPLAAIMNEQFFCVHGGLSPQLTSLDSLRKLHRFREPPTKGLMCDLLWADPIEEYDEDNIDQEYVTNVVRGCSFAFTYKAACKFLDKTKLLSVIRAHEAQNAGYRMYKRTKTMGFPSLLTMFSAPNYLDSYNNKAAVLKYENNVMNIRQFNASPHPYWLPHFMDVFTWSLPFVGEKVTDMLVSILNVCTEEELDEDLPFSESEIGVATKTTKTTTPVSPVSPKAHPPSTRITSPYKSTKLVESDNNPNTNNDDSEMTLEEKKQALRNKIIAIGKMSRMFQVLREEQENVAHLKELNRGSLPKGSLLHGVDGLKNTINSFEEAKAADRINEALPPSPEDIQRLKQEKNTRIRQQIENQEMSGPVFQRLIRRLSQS
# Chain of Luciferin 4-monooxygenase (P08659 whole entry): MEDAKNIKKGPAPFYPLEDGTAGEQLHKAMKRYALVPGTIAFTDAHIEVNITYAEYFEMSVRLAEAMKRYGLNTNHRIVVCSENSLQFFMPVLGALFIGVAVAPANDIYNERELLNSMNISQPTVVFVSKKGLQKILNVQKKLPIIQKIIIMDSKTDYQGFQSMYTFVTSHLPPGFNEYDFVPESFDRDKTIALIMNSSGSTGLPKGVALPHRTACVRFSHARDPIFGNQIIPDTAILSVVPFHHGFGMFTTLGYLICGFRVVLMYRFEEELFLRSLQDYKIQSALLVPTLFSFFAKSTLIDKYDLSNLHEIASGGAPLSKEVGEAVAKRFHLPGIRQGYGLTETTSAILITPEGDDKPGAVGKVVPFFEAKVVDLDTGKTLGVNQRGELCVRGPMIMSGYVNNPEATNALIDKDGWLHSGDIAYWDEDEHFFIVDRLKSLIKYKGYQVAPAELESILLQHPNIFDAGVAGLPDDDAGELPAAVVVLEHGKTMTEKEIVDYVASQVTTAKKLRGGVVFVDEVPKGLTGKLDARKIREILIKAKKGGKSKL
# Chain of Glyceraldehyde-3-phosphate dehydrogenase (P04406 whole entry): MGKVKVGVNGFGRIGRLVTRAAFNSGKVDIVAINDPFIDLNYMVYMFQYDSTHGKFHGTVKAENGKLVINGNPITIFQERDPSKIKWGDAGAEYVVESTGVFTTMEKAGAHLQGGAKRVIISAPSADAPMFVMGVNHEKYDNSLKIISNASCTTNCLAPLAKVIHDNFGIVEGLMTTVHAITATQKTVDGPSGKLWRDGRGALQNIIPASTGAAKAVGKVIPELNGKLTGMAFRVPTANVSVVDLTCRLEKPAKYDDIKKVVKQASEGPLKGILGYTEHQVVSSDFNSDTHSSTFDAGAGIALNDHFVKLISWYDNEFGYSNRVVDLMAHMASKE
compound,measurement,setting,value
O=C(/C=C/c1cn(CC(O)CN2CCCCCC2)c2ccccc12)c1cccs1 (stereo not given),EC50,[1],14.1 µM (active)
same,EC50,[2],11.9 µM (active)
same,IC50,CHO,20.1 µM (inactive)
same,IC50,Beta Lactamase [3],8.35 µM (active)
O=C(c1cccs1)N(Cc1nc(O)c2c3c(sc2n1)CCCC3)C1CCCC1,IC50,Vero [4],13.4 µM (active)
same,CC50,Vero [5],> 25 µM (active)
CCOC(=O)c1ccc(-c2ccc3ncnc(NCc4ccc(C)o4)c3c2)o1,AC50,[6],2.72 nM (active) and 93.6 nM (active)
O=C(CC(=O)c1cccc([N+](=O)[O-])c1)Nc1ccccc1Cl,EC50,[7],> 150 µM (inactive)
same,EC50,[8],524 nM (active)
same,EC50,[9],> 180 µM (inactive)
same,EC50,[10],> 160 µM (inactive)
CC(C)N1CCC(N2CCN(C3CCCCC3)CC2CCO)CC1 (stereo not given),AC50,Escherichia coli [11],97 µM (active)
same,AC50,Escherichia coli [12],16.8 µM (active)
COC(=O)CCn1nnc(-c2ccc(C(C)C)cc2)n1,EC50,[13],< 0.1 µM (active)
same,EC50,[14],251 nM (active)
same,EC50,[15],2.39 µM (active)
same,IC50,[16],> 100 µM (not active)
same,EC50,cells [17],477 nM (active)
same,EC50,[18],< 0.1 µM (active)
same,EC50,[19],< 0.1 µM (active)
same,EC50,HT-1080,> 50 µM (not active)
same,EC50,[20],373 nM (active)
same,EC50,[21],16.2 µM (active)
same,IC50,Jurkat [22],< 160 nM (active)
same,IC50,[23],> 80 µM (inactive)
same,AC50,[24],< 260 nM (active)
same,AC50,[25],< 260 nM (active)
same,AC50,[26],< 260 nM (active)
same,AC50,[27],379 nM (active)
Cc1ccc2nsnc2c1NC(=O)c1ccc([N+](=O)[O-])o1,IC50,HEK293 [28],> 80 µM (inactive)
same,IC50,Jurkat [29],22.7 µM (inactive)
same,IC50,HEK293 [30],37.9 µM (inactive)
CC(C)CN(C(=O)COC(=O)c1c2c(nc3ccccc13)CCC2)c1c(N)n(Cc2ccccc2)c(=O)[nH]c1=O,AC50,DNA topoisomerase,> 38 µM (inactive)
CC(C)C(=O)N1CCN(c2nc(-c3ccc(Cl)cc3)cs2)CC1,AC50,DNA topoisomerase,1.72 µM (active)
O=C(/C=C1\C(=O)Nc2ccccc21)/C=C1\C(=O)Nc2ccccc21,IC50,Vero [4],> 25 µM (active)
same,CC50,Vero [5],20 µM (active)
same,AC50,[31],9.5 µM (active)
same,AC50,[32],64.7 µM (active)
same,AC50,[33],11.7 µM (active)
same,IC50,[34],1.55 µM (active)
same,IC50,Beta Lactamase [35],28.6 µM (inactive)
COc1ccc(NC(=O)C/C(C)=N/NC(=O)C(=O)Nc2cccc(Cl)c2C)c(OC)c1,AC50,Escherichia coli [11],16.3 µM (active)
same,AC50,Escherichia coli [12],51.6 µM (active)
CC(C)c1ccc(C(NC(=O)C2CCCCC2)c2ccc3cccnc3c2O)cc1 (stereo not given),IC50,HEK293 [28],44.9 µM (inactive)
same,IC50,Jurkat [29],2.94 µM (active)
same,IC50,HEK293 [30],4.61 µM (active)
CC(C)(C)c1ccc(CSc2cnn(C(C)(C)C)c(=O)c2Cl)cc1 [PYRIDABEN],EC50,[7],103 µM (active)
same,EC50,[13],> 120 µM (not active)
same,EC50,[36],4.13 µM (active)
same,EC50,[18],> 120 µM (not active)
same,EC50,[19],> 120 µM (not active)
same,EC50,Streptokinase A,20.8 µM (active)
same,EC50,[8],211 nM (active)
same,EC50,[9],> 180 µM (inactive)
same,EC50,Streptococcus,123 µM (active)
same,EC50,[10],> 160 µM (inactive)
same,AC50,[33],< 0.26 µM (active)
same,IC50,Galanin receptor type 3,6.57 nM (active)
same,EC50,cells [37],> 29.9 µM (inactive)
same,IC50,[38],61.9 nM (active)
